Experimental data: patent US20220396794A1, “APTAMERS AGAINST TRANSFERRIN RECEPTOR (TfR)” (APTERNA LIMITED, priority 2019, published 2022)

What was measured:
[1] = target: T1, hTfR1 (extracellular domain of hTfR, His6-tagged) (Homo sapiens, UniProt P02786); test: Surface plasmon resonance-based biosensor assay (Biacore T100), aptamer-hTfR binding affinity and kinetics; conditions: for ka (1/Ms), measured association rate / kd (1/s), measured disassociation rate / Kd: Biacore T100, biotinylated aptamer on streptavidin chip, hTfR1 protein injected, 1:1 binding with mass transfer; for Kd: read-out: K^D (M), equilibrium dissociation constant; for binding affinity and kinetics for hTfR1 (Biacore sensorgram), in words: compared with parent TR14
T1 construct: (NP_003225.2) (Cys 89-Phe 760); His6 (N); purchased Sino Biological Inc 11020-H07H; host or cells: HEK293
From the text: Recombinant target protein. hTfR was purchased from Sino Biological Inc (11020-H07H, Beijing, P.R. China). The extracellular domain of hTfR (NP_003225.2) (Cys 89-Phe 760) was expressed with a His6-tag at the N-terminus in human cells (HEK293).
Surface plasmon resonance-based biosensor assay. The Biacore T100 (GE Healthcare, Uppsala, Sweden) was used to monitor label-free interactions of truncated TR14-hTfR1 in real time. The biotinylated aptamer was coupled to a streptavidin-coated Biacore chip (SensorChip SA, BR-1003-98, General Electric Company) by an injection in binding buffer at a concentration of 25 μg/mL (30 mM Tris-HCl, pH 7.5; 150 mM NaCl; 5 mM MgCl2) at 10 uL/min. The RNA was refolded by heating to 65° C., followed by cooling to 37° C., before immobilization. To measure binding kinetics, five concentrations of purified hTfR1 protein were injected at a flow rate of 10 uL/min. After binding, the surface was regenerated by injecting 50 mM NaOH at a flow rate of 15 μL/min for 20 s. Data from the control surface were subtracted. BIAevaluation software (GE Healthcare) was used for analysis. The binding data was fit to a 1:1 binding with a mass transfer model to calculate kinetics parameters as previously described (Hernandez et al, 2009; Soontornworajit et al, 2011)

PANC-Luc tumors = test: Liver-metastatic pancreatic cancer mouse model, combinational treatment with gemcitabine; format: in vivo, NOD/SCID mice; conditions: gemcitabine alone 50 mg/kg 2 times/week I.V., compared to vehicle-treated control
Protocol: Intrahepatic pancreatic cancer liver-metastatic mouse model. To create an animal model harboring traceable tumors, a firefly luciferase fragment was inserted into the pLKO.1-AS3 backbone encoding the neo gene (National RNAi Core, Academia Sinica, Taiwan). One day before transduction, 293T cells were plated onto a 6-well plate. On the day of transduction, the medium was replaced with DMEM containing serial dilutions of the transfer plasmids and incubated for 5 h, then the medium was replaced. After two days, the culture medium containing recombinant lentiviral particles was obtained. PANC-1 cells were incubated with recombinant lentiviral particles for 24 h. […] Luciferase expression was assessed using the Luciferase Assay System. […] For the combinational treatment with gemcitabine, tumors were allowed to grow for 2 weeks after inoculation until they could be detected using an IVIS system, then mice were randomly divided into five groups of 10 animals/group. […] Tumor growth was monitored by evaluating bioluminescence using an IVIS 200 in vivo imaging platform (Caliper Life Sciences, Alameda, Calif.) and measuring the difference from before the first injection and one day after the last injection. […] The mice were imaged using the IVIS 200 and bioluminescent signals were analyzed using Living Image Software (Caliper Life Sciences, Alameda, Calif.). […]

TfR1 = target: T2, TfR1 (Homo sapiens, UniProt P02786); test: Cross-reactivity by live cell confocal imaging, U87MG cells (express TfR1, not TfR2); format: cell-based; conditions: Cy3-labelled aptamer, U87MG cells (TfR1 only)
T2 construct: The U87MG cells only express TfR1, not TfR2; endogenous in cells; host or cells: U87MG (U-87 MG, ATCC HTB-14)
Protocol: (§1) Cell line. HepG2 (Hepatocarcinoma, HB-8065) and PANC-1 (Pancreatic epithelioid carcinoma, CRL-1469), U-87 MG (Glioblastoma, HTB-14) were purchased from the American Type Culture Collection (ATCC, Manassas, Va.). The cells were cultured according to the suppliers' instructions. TB10 human glioma cell line was obtained from Vittorio de Franciscis lab in Italy. The cells were cultured according to the suppliers' instructions.
(§2) To determine the potential cross-reactivity of the parent TR14, S2 (43-nt) and ST1-3 (22-nt) truncates, we tested chemically synthesized parent TR14, TR14-[…] or TR14-ST1-3 aptamer labelled with Cy3 on live cells imaging by confocal microscopy. To test this, we choose two glioblastoma cell lines (U87MG and TB10) that are selectively expressed of TfR1 or TfR2. The U87MG cells only express TfR1, not TfR2. In contrast, TB10 expresses TfR2, not TfR1.

TfR2 = target: T3, TfR2 (Homo sapiens, UniProt Q9UP52); test: Cross-reactivity by live cell confocal imaging, TB10 cells (express TfR2, not TfR1); format: cell-based; conditions: Cy3-labelled aptamer, TB10 cells (TfR2 only)
T3 construct: In contrast, TB10 expresses TfR2, not TfR1; endogenous in cells; host or cells: TB10 human glioma cells
T3 sequence (Q9UP52 1-801): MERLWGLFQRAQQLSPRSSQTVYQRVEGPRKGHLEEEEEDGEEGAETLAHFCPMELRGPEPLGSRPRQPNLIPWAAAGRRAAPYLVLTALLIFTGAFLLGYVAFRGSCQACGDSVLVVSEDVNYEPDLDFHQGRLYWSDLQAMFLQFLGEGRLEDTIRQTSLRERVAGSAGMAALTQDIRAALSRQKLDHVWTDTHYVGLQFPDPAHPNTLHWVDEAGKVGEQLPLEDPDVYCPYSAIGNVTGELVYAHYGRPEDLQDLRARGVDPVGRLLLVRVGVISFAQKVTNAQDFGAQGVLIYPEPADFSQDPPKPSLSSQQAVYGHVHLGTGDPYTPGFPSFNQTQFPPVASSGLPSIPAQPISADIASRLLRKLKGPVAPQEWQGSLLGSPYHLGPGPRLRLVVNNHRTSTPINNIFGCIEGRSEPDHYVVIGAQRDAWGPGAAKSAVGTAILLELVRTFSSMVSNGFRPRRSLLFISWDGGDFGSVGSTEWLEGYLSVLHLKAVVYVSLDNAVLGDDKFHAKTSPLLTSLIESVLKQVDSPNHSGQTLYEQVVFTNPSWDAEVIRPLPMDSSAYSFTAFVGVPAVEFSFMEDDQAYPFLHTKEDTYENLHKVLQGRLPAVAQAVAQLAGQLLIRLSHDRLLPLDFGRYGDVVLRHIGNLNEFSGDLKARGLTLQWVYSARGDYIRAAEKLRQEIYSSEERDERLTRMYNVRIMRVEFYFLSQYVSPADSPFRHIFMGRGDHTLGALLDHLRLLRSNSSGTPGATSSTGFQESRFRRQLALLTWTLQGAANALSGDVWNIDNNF
Protocol: as §1, §2

T1 sequence (P02786 89-760): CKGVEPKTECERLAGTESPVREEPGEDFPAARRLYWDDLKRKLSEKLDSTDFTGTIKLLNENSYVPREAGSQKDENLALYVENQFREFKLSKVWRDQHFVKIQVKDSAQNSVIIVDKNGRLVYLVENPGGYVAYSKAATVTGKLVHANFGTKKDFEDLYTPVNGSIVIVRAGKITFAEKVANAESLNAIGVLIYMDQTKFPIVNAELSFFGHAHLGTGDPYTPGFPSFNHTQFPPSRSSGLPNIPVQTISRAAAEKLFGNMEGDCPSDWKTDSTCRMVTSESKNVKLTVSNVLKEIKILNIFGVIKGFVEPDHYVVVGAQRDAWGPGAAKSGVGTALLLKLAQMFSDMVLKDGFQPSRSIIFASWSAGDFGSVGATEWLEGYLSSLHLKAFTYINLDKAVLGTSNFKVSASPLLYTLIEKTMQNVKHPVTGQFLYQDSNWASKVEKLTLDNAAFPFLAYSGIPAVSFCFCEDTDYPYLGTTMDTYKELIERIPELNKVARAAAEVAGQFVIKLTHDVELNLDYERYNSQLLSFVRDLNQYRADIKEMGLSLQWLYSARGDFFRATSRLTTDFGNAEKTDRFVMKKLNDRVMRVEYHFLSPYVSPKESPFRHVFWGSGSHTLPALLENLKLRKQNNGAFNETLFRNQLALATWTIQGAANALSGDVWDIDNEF
T2 sequence (P02786 whole entry): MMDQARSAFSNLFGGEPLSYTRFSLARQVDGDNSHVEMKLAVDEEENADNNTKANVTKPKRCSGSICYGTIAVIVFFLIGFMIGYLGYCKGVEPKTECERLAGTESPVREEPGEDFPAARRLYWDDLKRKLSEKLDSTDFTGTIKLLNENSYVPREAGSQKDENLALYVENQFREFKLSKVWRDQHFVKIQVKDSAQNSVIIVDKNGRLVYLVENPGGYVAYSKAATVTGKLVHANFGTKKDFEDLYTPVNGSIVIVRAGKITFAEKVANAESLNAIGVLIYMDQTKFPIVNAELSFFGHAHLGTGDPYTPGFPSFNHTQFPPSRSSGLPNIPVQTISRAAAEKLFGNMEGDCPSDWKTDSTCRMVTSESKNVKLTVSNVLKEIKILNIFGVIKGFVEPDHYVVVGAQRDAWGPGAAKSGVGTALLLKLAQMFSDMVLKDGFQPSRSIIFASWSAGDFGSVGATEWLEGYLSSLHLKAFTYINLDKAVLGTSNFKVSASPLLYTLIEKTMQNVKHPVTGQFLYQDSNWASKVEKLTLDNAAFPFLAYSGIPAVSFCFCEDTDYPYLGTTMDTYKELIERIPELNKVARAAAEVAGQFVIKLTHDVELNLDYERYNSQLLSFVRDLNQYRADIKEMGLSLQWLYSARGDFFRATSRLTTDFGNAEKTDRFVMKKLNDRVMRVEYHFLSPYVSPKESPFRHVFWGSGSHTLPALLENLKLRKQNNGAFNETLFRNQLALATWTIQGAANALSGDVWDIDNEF

| Compound | ka (1/Ms), measured association rate [1] [M⁻¹ s⁻¹] | kd (1/s), measured disassociation rate [1] [s⁻¹] | Kd [1] [M] | reduction of tumor volume (PANC-Luc tumors) [%] | binding affinity and kinetics for hTfR1 (Biacore sensorgram), in words [1] | binding to TfR1 (TfR1) | binding to TfR2 (TfR2) |
| --- | --- | --- | --- | --- | --- | --- | --- |
| TR14 S1: TR14 truncate, 46-nt, with 5′-GGG; SEQ ID NO:2 (GGGGCUCAAUGCGUUCACGUUUAUUCACAUUUUUGAAUUGAGCAUG; listed as RNA, chemistry not given here) | 13000 | 1.89e-05 | 1.46e-09 |  |  |  |  |
| Nc1ccn([C@@H]2O[C@H](CO)[C@@H](O)C2(F)F)c(=O)n1 [gemcitabine, 2′, 2′-difluoro 2′deoxycytidine, reference compound] |  |  |  | ~70 |  |  |  |
| TR14 ST1-2: TR14 truncate, 32-nt, 5′-AAUGCGUUCACGUUUAUUCACAUUUUUGAAUU-3′; SEQ ID NO:5 (listed as RNA, chemistry not given here) |  |  |  |  | neither TR14 ST1-1 nor TR14 ST1-2 were measurable |  |  |
| TR14 ST1-3: TR14 truncate, 22-nt, 5′-UUUAUUCACAUUUUUGAAUUGA-3′; SEQ ID NO:6 (listed as RNA, chemistry not given here) | 6.3e+06 | 0.000138 | 2.2e-11 |  |  | cross-activity on both TfR1 and TfR2 | cross-activity on both TfR1 and TfR2 |
| TR14 S2: TR14 truncate, 43-nt, with 5′-GGG; SEQ ID NO:3 (GGGGCUCAAUGCGUUCACGUUUAUUCACAUUUUUGAAUUGAGC; listed as RNA, chemistry not given here) | 8.34e+08 | 0.000577 |  |  | improved kinetic constants | selective binding to TfR1 | selective binding to TfR1 |
| TR14 ST1-1: TR14 truncate, 40-nt, without 5′-GGG, chemically synthesized; SEQ ID NO:4 (GCUCAAUGCGUUCACGUUUAUUCACAUUUUUGAAUUGAGC; chemically synthesized, modifications not given here, further chemistry not given here) |  |  |  |  | neither TR14 ST1-1 nor TR14 ST1-2 were measurable |  |  |
